Experiments:
Assay type in all cases: cell-based
[1] = system: MM96L human melanoma cells; test: Killing by untreated leukocytes of drug-pretreated tumor cells ([3H]-thymidine); details: target cells pretreated with 60 ng/mL for 20 hr, washed; 48 hr with human leukocytes; 100:1 ratio of effector:target cells
Description: (§1) The question of whether drug treatment of the target tumor cells causes them to become susceptible to effector cells of the immune system was addressed as follows.
(§2) Leukocytes obtained by lysis of human peripheral blood were added to 5000 MM96L human melanoma cells or 7000 neonatal foreskin fibroblasts per microtitre well at effector: target ratios of 1000, 100 and 10:1. The target cells had been treated with 60 ng/mL PEP008 for 20 hr beforehand, and washed and the medium replaced before the leukocytes were added. After 48 hr incubation with the leukocytes the cultures were washed and labelled with [3H]-thymidine for 2 hr. […] Untreated leukocytes had no effect on cell survival.

[2] = system: neonatal foreskin fibroblasts; test: Killing by untreated leukocytes of drug-pretreated normal cells ([3H]-thymidine); details: target cells pretreated with 60 ng/mL for 20 hr, washed; 48 hr with human leukocytes; 100:1 ratio of effector:target cells
Description: as §1, §2

[3] = system: DU145 prostate cancer cells; test: Combination with chemotherapeutic agents, cytotoxicity (3H-thymidine incorporation); details: 24 hr treatment, then five days growth; for cytotoxicity of combination with cisplatin compared to additive cytotoxicity: FIGS. 6A, 6B, 6E; for cytotoxicity of combination with SBHA compared to additive cytotoxicity: FIGS. 6C, 6D
Description: The prostate cancer cells were treated with (A) PEP006 and cisplatin, (B) PEP008 and cisplatin, (C) PEP005 and SBHA, (D) PEP008 and SBHA and (E) PEP005 and cisplatin for 24 hr after which the medium was changed and the cells permitted to grow in the presence of ^3H-thymidine for five days. The percentage cell survival was determined by measuring the incorporation of ^3H-thymidine in the cells.

Row | Compound | survival of melanoma cells [1] [%] | survival of normal fibroblasts [2] [%] | cytotoxicity of combination with cisplatin compared to additive cytotoxicity [3] | cytotoxicity of combination with SBHA compared to additive cytotoxicity [3]
1 | C/C=C(/C)C(=O)O[C@H]1C(C)=C[C@]23C(=O)[C@@H](C=C(COC(C)=O)[C@@H](O)[C@]12O)[C@H]1[C@@H](C[C@H]3C)C1(C)C [PEP008, 20-O-acetyl-ingenol-3-angelate] | 12 | 100 | synergistic combinations | synergistic combinations
2 | C/C=C(/C)C(=O)O[C@H]1C(C)=C[C@]23C(=O)[C@H](C=C(C)[C@@H](O)[C@]12O)[C@H]1[C@@H](C[C@H]3C)C1(C)C [PEP006, 20-deoxy-Ingenol-3-angelate] |  |  | synergistic combinations | 
3 | C/C=C(/C)C(=O)O[C@H]1C(C)=C[C@]23C(=O)[C@@H](C=C(CO)[C@@H](O)[C@]12O)[C@H]1[C@@H](C[C@H]3C)C1(C)C [PEP005, Ingenol-3-angelate] |  |  | synergistic combinations | synergistic combinations

Source: US7378445B2, “Treatment of prostate cancer” (Peplin Research Pty. Ltd., priority 2000, dated 2008)
